Results reported in patent US9101136B2, “Synergistic herbicide/fungicide composition containing certain pyridine carboxylic acids and certain fungicides” (Dow AgroSciences LLC, priority 2010, dated 2015).
Like-named read-outs stand apart in the source and are kept apart here.

Key:
Type in all cases: in vivo
[1] = system: kochia (Kochia scoparia L; KCHSC); experiment: Postemergence herbicidal activity of mixtures on kochia; parameters: KCHSC Ob: unit: %; conditions: for KCHSC Ob (observed control): alone
Procedure: (§1) Seeds of the desired test plant species were planted in Sun Gro MetroMix 306 planting mixture, which typically has a pH of 6.0 to 6.8 and an organic matter content of about 30 percent, in plastic pots with a surface area of 103.2 square centimeters (cm^2). When required to ensure good germination and healthy plants, a fungicide treatment and/or other chemical or physical treatment was applied. The plants were grown for 7-36 days (d) in a greenhouse with an approximate 14-hour (h) photoperiod which was maintained at about 18° C. during the day and 17° C. during the night. Nutrients and water were added on a regular basis and supplemental lighting was provided with overhead metal halide 1000-Watt lamps as necessary. The plants were employed for testing when they reached the second or third true leaf stage.
(§2) Treatments consisted of a cereal fungicide compound (as listed in Tables 1 through 34) and the cereal herbicide, 4-amino-3-chloro-6-(4-chloro-2-fluoro-3-methoxyphenyl)pyridine-2-carboxylic acid, alone and in combination. Weighed amounts of acid, esters (methyl) or salts (triethylammonium, TEA) of 4-amino-3-chloro-6-(4-chloro-2-fluoro-3-methoxyphenyl)pyridine-2-carboxylic acid (Compound I) were placed in 25 milliliter (mL) glass vials and dissolved in a volume of 97:3 volume-to-volume (v/v) acetone/dimethyl sulfoxide (DMSO) to obtain 4.5 milligrams active ingredient per milliliter (mg ai/mL) concentrated solutions. […] The concentrated solutions of Compound I were diluted to 1.5 mg ai/mL with the addition of 2 volumes of an aqueous mixture containing acetone, water, isopropyl alcohol, DMSO, Agri-dex crop oil concentrate, and Triton® X-77 surfactant in a 64.7:26.0:6.7:2.0:0.7:0.01 v/v ratio. A dilution solution was prepared by mixing 1 volume of 97:3 v/v acetone/DMSO and 2 volumes of an aqueous mixture containing acetone, water, isopropyl alcohol, DMSO, Agri-dex crop oil concentrate, and Triton® X-77 surfactant in a 64.7:26.0:6.7:2.0:0.7:0.01 v/v ratio. Compound requirements are based upon a 12 mL application volume at a rate of 187 liters per hectare (L/ha). The concentrated solutions of the cereal fungicides were prepared following the same procedure. Weighed amounts of fungicide were placed in 25 mL glass vials and dissolved in a volume of 97:3 v/v acetone/DMSO to obtain concentrated fungicide solutions. The concentrated solutions of the safener were prepared following the same procedure. Weighed amounts of safener were placed in 25 mL glass vials and dissolved in a volume of 97:3 v/v acetone/DMSO to obtain concentrated safener solutions.
(§3) Spray solutions of the cereal herbicide and the fungicidal compound mixtures were prepared by adding the concentrated solutions to the appropriate amount of dilution solution to form 12 mL spray solution with active ingredients in combinations. Spray solutions of the cereal herbicide, herbicide safener and the fungicidal compound mixtures were prepared by adding the concentrated solutions to the appropriate amount of dilution solution to form 12 mL spray solution with active ingredients in combinations.
(§4) Formulated compounds were applied to the plant material with an overhead Mandel track sprayer equipped with 8002E nozzles calibrated to deliver 187 L/ha over an application area of 0.503 square meters (m^2) at a spray height of 18 inches […] above average plant canopy. Control plants were sprayed in the same manner with the solvent blank.
(§5) The treated plants and control plants were placed in a greenhouse as described above and watered by sub-irrigation to prevent wash-off of the test compounds. After 20-22 d, the condition of the test plants as compared with that of the control plants was determined visually and scored on a scale of 0 to 100 percent where 0 corresponds to no injury and 100 corresponds to complete kill. […]

[2] = system: scented mayweed (Matricaria chamomila L; MATCH); experiment: Postemergence herbicidal activity of mixtures on scented mayweed; conditions: for MATCH Ob (observed control): alone
Procedure: as §1, §2, §3, §4, §5

[3] = system: Russian thistle (Salsola iberica L; SASKR); experiment: Postemergence herbicidal activity of mixtures on Russian thistle; conditions: for SASKR Ob (observed control): alone
Procedure: as §1, §2, §3, §4, §5

[4] = system: bird's-eye speedwell (Veronica persica L; VERPE); experiment: Postemergence herbicidal activity of mixtures on bird's-eye speedwell; conditions: for VERPE Ob (observed control): alone
Procedure: as §1, §2, §3, §4, §5

[5] = system: wild pansy (Viola tricolor L; VIOTR); experiment: Postemergence herbicidal activity of mixtures on wild pansy
Procedure: as §1, §2, §3, §4, §5

[6] = system: Wheat; experiment: Safening activity of herbicidal compositions on wheat (crop injury); conditions: for TRZAS Ob (observed injury): alone
Procedure: as §1, §2, §3, §4, §5

[7] = system: Barley; experiment: Safening activity of herbicidal compositions on barley (crop injury); conditions: for HORVS Ob (observed injury): alone
Procedure: as §1, §2, §3, §4, §5

[8] = Viola tricolor, post-emergence, alone, read-out: VIOTR Ob (observed control)

CCCC1COC(Cn2cncn2)(c2ccc(Cl)cc2Cl)O1 (stereo not shown) [Propiconazole, 1-[[2-(2,4-dichlorophenyl)-4-propyl-1,3-dioxolan-2-yl]methyl]-1H-1,2,4-triazole]
0%: pest or weed control at 31.25 g/ha ([1]; Bassia scoparia, post-emergence, fungicide 31.25 g/ha alone, read-out: KCHSC Ob) | pest or weed control at 31.25 g/ha ([2]; Matricaria, post-emergence, fungicide 31.25 g/ha alone, read-out: MATCH Ob) | pest or weed control at 31.25 g/ha ([3]; Salsola tragus, post-emergence, fungicide 31.25 g/ha alone, read-out: SASKR Ob) | pest or weed control at 31.25 g/ha ([4]; Veronica persica, post-emergence, fungicide 31.25 g/ha alone, read-out: VERPE Ob) | pest or weed control at 31.25 g/ha ([5]; Viola tricolor, post-emergence, fungicide 31.25 g/ha alone, read-out: VIOTR Ob)

Fc1ccc(Oc2ccnc3cc(Cl)cc(Cl)c23)cc1 [Quinoxyfen, 5,7-dichloro-4-(4-fluorophenoxy)quinoline]
0%: pest or weed control at 37.5 g/ha ([1]; Bassia scoparia, post-emergence, fungicide 37.5 g/ha alone, read-out: KCHSC Ob) | KCHSC Ob (observed control) ([1]; 37.5 g/ha) | MATCH Ob (observed control) ([2]; 37.5 g/ha) | SASKR Ob (observed control) ([3]; 37.5 g/ha) | VERPE Ob (observed control) ([4]; 37.5 g/ha) | pest or weed control at 37.5 g/ha ([5]; Viola tricolor, post-emergence, alone, 37.5 g/ha, read-out: VIOTR Ob (observed control)) | pest or weed control at 37.5 g/ha ([5]; Viola tricolor, post-emergence, fungicide 37.5 g/ha alone, read-out: VIOTR Ob)

CC(C)(C)C(O)(CCc1ccc(Cl)cc1)Cn1cncn1 (stereo not drawn) [Tebuconazole, α-[2-(4-chlorophenyl)ethyl]-α-(1,1-dimethylethyl)-1H-1,2,4-triazole-1-ethanol]
0%: KCHSC Ob (observed control) ([1]; 31.25 g/ha) | KCHSC Ob (observed control) ([1]; 62.5 g/ha) | KCHSC Ob (observed control) ([1]; 250 g/ha) | MATCH Ob (observed control) ([2]; 31.25 g/ha) | MATCH Ob (observed control) ([2]; 62.5 g/ha) | MATCH Ob (observed control) ([2]; 250 g/ha) | SASKR Ob (observed control) ([3]; 31.25 g/ha) | SASKR Ob (observed control) ([3]; 62.5 g/ha) | SASKR Ob (observed control) ([3]; 250 g/ha) | VERPE Ob (observed control) ([4]; 31.25 g/ha) | VERPE Ob (observed control) ([4]; 62.5 g/ha) | VERPE Ob (observed control) ([4]; 250 g/ha) | pest or weed control at 31.25 g/ha ([5]; Viola tricolor, post-emergence, alone, 31.25 g/ha, read-out: VIOTR Ob (observed control)) | pest or weed control at 62.5 g/ha [5, 8] | pest or weed control at 250 g/ha ([5]; Viola tricolor, post-emergence, alone, 250 g/ha, read-out: VIOTR Ob (observed control)) | TRZAS Ob (observed injury) ([6]; 62.5 g/ha) | TRZAS Ob (observed injury) ([6]; 250 g/ha) | HORVS Ob (observed injury) ([7]; 62.5 g/ha) | HORVS Ob (observed injury) ([7]; 250 g/ha)
0: KCHSC Ob ([1]; fungicide 250 g/ha) | MATCH Ob ([2]; fungicide 250 g/ha) | SASKR Ob ([3]; fungicide 250 g/ha) | VERPE Ob ([4]; fungicide 250 g/ha) | VIOTR Ob ([5]; fungicide 250 g/ha) | TRZAS Ob ([6]; fungicide 250 g/ha) | HORVS Ob ([7]; fungicide 250 g/ha)

CO/N=C(/C(=O)OC)c1ccccc1CO/N=C(\C)c1cccc(C(F)(F)F)c1 [Trifloxystrobin, methyl (αE)-α-(methoxyimino)-2-[[[[(1E)-1-[3-(trifluoromethyl)phenyl]ethylidene]amino]oxy]methyl]benzeneacetate]
0%: KCHSC Ob (observed control) ([1]; 62.5 g/ha) | MATCH Ob (observed control) ([2]; 62.5 g/ha) | SASKR Ob (observed control) ([3]; 62.5 g/ha) | VERPE Ob (observed control) ([4]; 62.5 g/ha) | pest or weed control at 62.5 g/ha [5, 8]

CCCCCC(C)OC(=O)COc1ccc(Cl)c2cccnc12 (stereo not shown) [cloquintocet-mexyl]
0%: KCHSC Ob (observed control) ([1]; 4.4 g/ha) | KCHSC Ob (observed control) ([1]; 35 g/ha) | MATCH Ob (observed control) ([2]; 4.4 g/ha) | MATCH Ob (observed control) ([2]; 35 g/ha) | SASKR Ob (observed control) ([3]; 4.4 g/ha) | SASKR Ob (observed control) ([3]; 35 g/ha) | VERPE Ob (observed control) ([4]; 4.4 g/ha) | VERPE Ob (observed control) ([4]; 35 g/ha) | pest or weed control at 4.4 g/ha ([5]; Viola tricolor, post-emergence, alone, 4.4 g/ha, read-out: VIOTR Ob (observed control)) | pest or weed control at 35 g/ha ([5]; Viola tricolor, post-emergence, alone, 35 g/ha, read-out: VIOTR Ob (observed control))

[[2-[(dithiocarboxy)amino]ethyl]carbamo-dithioato(2^−)-κS,κS′]manganese mixture with [[2-[(dithiocarboxy)amino]ethyl]carbamo-dithioato(2^−)-κS,κS′]zinc [Mancozeb]
0%: KCHSC Ob ([1]; fungicide 281.25 g/ha alone) | MATCH Ob ([2]; fungicide 281.25 g/ha alone) | SASKR Ob ([3]; fungicide 281.25 g/ha alone) | VERPE Ob ([4]; fungicide 281.25 g/ha alone) | VIOTR Ob ([5]; fungicide 281.25 g/ha alone)
